Results: patent publication US10239881B2, “RIPK2 inhibitors and method of treating cancer with same” (University Health Network, priority 2014, dated 2019)
One block for each molecule: values may come before it.

Tests used:
human RIPK2 kinase = human RIPK2 kinase (Homo sapiens (Human), UniProt O43353); assay: RIPK2 inhibition assay (indirect ELISA); assay type: biochemical; conditions: His-RIPK2 0.6 nM, 6 μM ATP; read-out: RIPK2 IC50 range
Procedure: Active RIPK2 was purchased from Life Technologies as His-tagged of catalityc domain (amin acids 1-299) of human RIPK2 kinase expressed in insect cells. Amino terminal 6 histidine, sumo tagged human TTK (residues 1-275) was expressed in E. coli, and purified to >95% homogeneity by Ni^2+ agarose, gel filtration, and ion exchange chromatography.
RIPK2 activity was measured using an indirect ELISA detection system. His—RIPK2 (0.6 nM) was incubated in the presence of 6 μM ATP (Sigma cat # A7699), 20 mM Hepes, pH 7.5, 1 mM EGTA, 2.5 mM MgCl2, 2.5 mM MnCl2 and 0.01% Triton X-100 in a 96 well microtitre plate pre-coated with amino terminal 6 histidine, sumo tagged TTK (amino acid residues 1-275). The reaction was allowed to proceed for 30 minutes, followed by 5 washes of the plate with Wash Buffer (phosphate buffered saline supplemented with 0.2% Tween 20), and incubation for 30 minutes with a 1:3000 dilution of primary antibody (Cell Signaling cat #9381). The plate was washed 5 times with Wash Buffer, incubated for 30 minutes in the presence of secondary antibody coupled to horse radish peroxidase (BioRad cat #1721019, 1:3000 concentration), washed an additional 5 times with Wash Buffer, and incubated in the presence of TMB substrate (Sigma cat # T0440). The colorimetric reaction was allowed to continue for 5 minutes, followed by addition of stop solution (0.5 N H2SO4), and quantified by detection at 450 nm with either a monoChromatic or filter based plate reader (Molecular Devices M5 or Beckman DTX880, respectively).
Compound inhibition was determined at either a fixed concentration (10 μM) or at a variable inhibitor concentration (typically 50 μM to 0.1 μM in a 10 point dose response titration). Compounds were pre-incubated in the presence of enzyme for 15 minutes prior to addition of ATP and the activity remaining quantified using the above described activity assay. The % Inhibition of a compound was determined using the following formula; % Inhibition=100×(1−(experimental value−background value)/(high activity control−background value)). The IC50 value was determined using a non-linear 4 point logistic curve fit (XLfit4, IDBS) with the formula; (A+(B/(1+((x/C)^D)))), where A=background value, B=range, C=inflection point, D=curve fit parameter.

[1] = test system: HCT116 colon cancer cells; assay: Sulforhodamine B cell growth inhibition assay; assay type: cell-based; conditions: Homo sapiens, HCT-116, 120 h; 5 days, SRB; read-out: Colon GI50 range HCT116
Procedure: (§1) Breast cancer cells (MDA-MB-231 and MDA-MB-468), colon cancer cells (HCT116 and HT-29) and ovarian cancer cells (SKOV-3 and OVCAR-3) were seeded (1000 to 4000 in 80 μL per well depending on the cell growth rate) into 96 well plates 24 hours before compound overlay. Compounds were prepared as 10 mM stock solutions in 100% DMSO which were diluted with DMEM (Dulbecco's Modified Eagle's Medium) cell growth Medium (Invitrogen, Burlington, ON, Canada) containing 10% FBS (Fetal Bovine Serum) to concentrations ranging from 50 nM to 250 μM. Aliquots (20 μL) from each concentration were overlaid to 80 μL of the pre-seeded cells in the 96 well plates to make final concentrations of 10 nM to 50 μM. The cells were cultured for 5 days before the Sulforhodamine B assay (SRB) was performed to determine the compound's cell growth inhibition activity.
(§2) The cells are fixed in situ by gently aspirating off the culture media and adding 50 μL ice cold 10% trichloroacetic acid per well and incubate at 4° C. for 30-60 min. The plates are washed with H2O five times and allowed to air dry for 5 min. Addition of 50 μL 0.4% (w/v) SRB solution in 1% (v/v) acetic acid to each well and incubation for 30 min at rt completes the staining reaction. Following staining, plates are washed four times with 1% acetic acid to remove unbound dye and then allowed to air dry for 5 min. The stain is solubilized with 100 μL of 10 mM Tris pH 10.5 per well. Absorbance is read at 570 nm. The percentage (%) of relative growth inhibition was calculated by comparing to DMSO treated only cells (100%). GI50's were determined for compounds with cytotoxic activity. The GI50 was calculated using GraphPad PRISM software (GraphPad Software, Inc., San Diego, Calif., USA). GI50 (growth inhibition) is the compound concentration that causes 50% inhibition of cell growth.
(§3) In Table 2 lists GI50 value ranges for compound examples against breast cancer cell lines (MDA-MB-231, MDA-MB-468), colon cancer cell lines (HCT116, HT-29) and ovarian cancer cell lines (OVCAR-3, SKOV-3) are given. […] The GI50 ranges are indicated as “A,” “B,” and “C,” for values less than or equal to 1 μM; those greater than 1 μM and less than or equal to 10 μM; and those greater than 10 μM, respectively.

HT-29 colon cancer cells = assay: Sulforhodamine B cell growth inhibition assay; assay type: cell-based; conditions: Homo sapiens, HT-29, 120 h; 5 days, SRB; read-out: Colon GI50 range HT29
Procedure: as §1, §2, §3

[2] = test system: MDA-MB-231 breast cancer cells; assay: Sulforhodamine B cell growth inhibition assay; assay type: cell-based; conditions: Homo sapiens, MDA-MB-231, 120 h; 5 days, SRB; read-out: Breast GI50 range MDA-MB-231
Procedure: as §1, §2, §3

[3] = test system: MDA-MB-468 breast cancer cells; assay: Sulforhodamine B cell growth inhibition assay; assay type: cell-based; conditions: Homo sapiens, MDA-MB-468, 120 h; 5 days, SRB; read-out: Breast GI50 range MDA-MB-468
Procedure: as §1, §2, §3

[4] = test system: OVCAR-3 ovarian cancer cells; assay: Sulforhodamine B cell growth inhibition assay; assay type: cell-based; conditions: Homo sapiens, OVCAR-3, 120 h; 5 days, SRB; read-out: Ovarian GI50 range OVCAR-3
Procedure: as §1, §2, §3

[5] = test system: SKOV-3 ovarian cancer cells; assay: Sulforhodamine B cell growth inhibition assay; assay type: cell-based; conditions: Homo sapiens, SK-OV-3, 120 h; 5 days, SRB; read-out: Ovarian GI50 range SKOV-3
Procedure: as §1, §2, §3

human RIPK2 kinase, sequence (O43353 1-299): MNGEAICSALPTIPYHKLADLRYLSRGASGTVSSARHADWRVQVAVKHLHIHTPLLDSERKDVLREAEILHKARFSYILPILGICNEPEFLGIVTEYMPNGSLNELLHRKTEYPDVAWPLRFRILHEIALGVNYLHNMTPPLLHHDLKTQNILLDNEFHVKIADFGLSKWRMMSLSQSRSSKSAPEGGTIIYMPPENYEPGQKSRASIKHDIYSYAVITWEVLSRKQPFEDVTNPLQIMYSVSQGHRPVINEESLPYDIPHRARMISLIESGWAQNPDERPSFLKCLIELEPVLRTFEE

SMILES: c1ccc(Nc2ncc3[nH]c(-c4ccccc4)cc3n2)cc1 [Example A1, N,6-diphenyl-5H-pyrrolo[3,2-d]pyrimidin-2-amine]
IC50 (human RIPK2 kinase): > 500 nM

SMILES: Cc1ccccc1-c1cc2nc(Nc3ccc(OC4CCN(C)CC4)cc3)ncc2[nH]1 [Example A2, N-(4-((1-methylpiperidin-4-yl)oxy)phenyl)-6-(o-tolyl)-5H-pyrrolo[3,2-d] pyrimidin-2-amine]
IC50 (human RIPK2 kinase): ≤ 100 nM
GI50 [1]: 1000 to 10000 nM
GI50 (HT-29 colon cancer cells): 1000 to 10000 nM
GI50 [2]: 1000 to 10000 nM
GI50 [3]: 1000 to 10000 nM
GI50 [4]: 1000 to 10000 nM
GI50 [5]: 1000 to 10000 nM

SMILES: Cc1nc(Nc2ncc3[nH]c(-c4ccccc4C)cc3n2)cc(N2CCN(CCO)CC2)n1 [Example A5, 2-(4-(2-methyl-6-((6-(o-tolyl)-5H-pyrrolo[3,2-d]pyrimidin-2-yl)amino)pyrimidin-4-yl)piperazin-1-yl)ethanol]
IC50 (human RIPK2 kinase): > 500 nM

SMILES: Cc1cccc(C)c1-c1cc2nc(Nc3cccc(N4CCN(C)CC4)c3)ncc2[nH]1 [Example A6, 6-(2,6-dimethylphenyl)-N-(3-(4-methylpiperazin-1-yl)phenyl)-5H-pyrrolo[3,2-d]pyrimidin-2-amine]
IC50 (human RIPK2 kinase): ≤ 100 nM
GI50 [1]: 1000 to 10000 nM
GI50 (HT-29 colon cancer cells): ≤ 1000 nM
GI50 [2]: 1000 to 10000 nM
GI50 [4]: ≤ 1000 nM
GI50 [5]: ≤ 1000 nM

SMILES: Cc1ccccc1-c1cc2nc(Nc3cccc(CN4CCOCC4)c3)ncc2[nH]1 [Example A7, N-(3-(morpholino-methyl)phenyl)-6-(o-tolyl)-5H-pyrrolo[3,2-d] pyrimidin-2-amine]
IC50 (human RIPK2 kinase): ≤ 100 nM
GI50 [1]: 1000 to 10000 nM
GI50 (HT-29 colon cancer cells): 1000 to 10000 nM
GI50 [2]: 1000 to 10000 nM
GI50 [4]: 1000 to 10000 nM
GI50 [5]: 1000 to 10000 nM

SMILES: Cc1ccccc1-c1cc2nc(Nc3ccc(N4CCOCC4)cc3)ncc2[nH]1 [Example A8, N-(4-morpholino-phenyl)-6-(o-tolyl)-5H-pyrrolo[3,2-d]pyrimidin-2-amine]
IC50 (human RIPK2 kinase): ≤ 100 nM
GI50 [1]: > 10000 nM
GI50 (HT-29 colon cancer cells): > 10000 nM
GI50 [2]: > 10000 nM
GI50 [4]: > 10000 nM
GI50 [5]: > 10000 nM

SMILES: Cc1ccccc1-c1cc2nc(Nc3cccc(CN4CCN(C)CC4)c3)ncc2[nH]1 [Example A9, N-(3-((4-methylpiperazin-1-yl)methyl)phenyl)-6-(o-tolyl)-5H-pyrrolo[3,2-d] pyrimidin-2-amine]
IC50 (human RIPK2 kinase): ≤ 100 nM
GI50 [1]: 1000 to 10000 nM
GI50 (HT-29 colon cancer cells): ≤ 1000 nM
GI50 [2]: > 10000 nM
GI50 [4]: ≤ 1000 nM
GI50 [5]: ≤ 1000 nM

SMILES: CN1CCN(c2cccc(Nc3ncc4[nH]c(C5CCCC5)cc4n3)c2)CC1 [Example A10, 6-cyclopentyl-N-(3-(4-methylpiperazin-1-yl)phenyl)-5H-pyrrolo[3,2-d]pyrimidin-2-amine]
IC50 (human RIPK2 kinase): > 500 nM

SMILES: CN1CCN(c2cccc(Nc3ncc4[nH]c(-c5ccsc5)cc4n3)c2)CC1 [Example A11, N-(3-(4-methylpiperazin-1-yl)phenyl)-6-(thiophen-3-yl)-5H-pyrrolo[3,2-d]pyrimidin-2-amine]
IC50 (human RIPK2 kinase): ≤ 100 nM

SMILES: c1cc(Nc2ncc3[nH]c(C4CCOCC4)cc3n2)cc(N2CCOCC2)c1 [Example A14, N-(3-morpholino-phenyl)-6-(tetrahydro-2H-pyran-4-yl)-5H-pyrrolo[3,2-d] pyrimidin-2-amine]
IC50 (human RIPK2 kinase): > 500 nM

SMILES: Cc1ccccc1-c1cc2nc(Nc3ccc(CN4CCOCC4)cc3)ncc2[nH]1 [Example A15, N-(4-(morpholino-methyl)phenyl)-6-(o-tolyl)-5H-pyrrolo[3,2-d] pyrimidin-2-amine]
IC50 (human RIPK2 kinase): ≤ 100 nM

Now from value to molecule:

IC50 (human RIPK2 kinase): ≤ 100 nM
SMILES: OCCN1CCN(c2cccc(Nc3ncc4[nH]c(-c5ccccc5Cl)cc4n3)c2)CC1 [Example A16, 2-(4-(3-((6-(2-chlorophenyl)-5H-pyrrolo[3,2-d]pyrimidin-2-yl)amino)phenyl)piperazin-1-yl) ethanol]

IC50 (human RIPK2 kinase): ≤ 100 nM
SMILES: Cc1ccccc1-c1cc2nc(Nc3ccc(N4CCN(C)CC4)cc3)ncc2[nH]1 [Example A17, N-(4-(4-methylpiperazin-1-yl)phenyl)-6-(o-tolyl)-5H-pyrrolo[3,2-d]pyrimidin-2-amine]

IC50 (human RIPK2 kinase): ≤ 100 nM
SMILES: Cc1ccccc1-c1cc2nc(Nc3ccc(CN4CCN(C)CC4)cc3)ncc2[nH]1 [Example A18, N-(4-((4-methylpiperazin-1-yl)methyl)phenyl)-6-(o-tolyl)-5H-pyrrolo[3,2-d] pyrimidin-2-amine]

IC50 (human RIPK2 kinase): > 500 nM
SMILES: Cc1ccccc1-c1cc2nc(NCCCN3CCOCC3)ncc2[nH]1 [Example A19, N-(3-morpholinopropyl)-6-(o-tolyl)-5H-pyrrolo[3,2-d]pyrimidin-2-amine]

IC50 (human RIPK2 kinase): ≤ 100 nM
SMILES: Clc1ccccc1-c1cc2nc(Nc3cccc(N4CCOCC4)c3)ncc2[nH]1 [Example A20, 6-(2-chloro-phenyl)-N-(3-morpholino-phenyl)-5H-pyrrolo[3,2-d]pyrimidin-2-amine]

IC50 (human RIPK2 kinase): 100 to 500 nM
SMILES: Cc1ccccc1-c1cc2nc(N[C@H]3CC[C@@H](O)CC3)ncc2[nH]1 [Example A21, (1r,4)-4-((6-(o-tolyl)-5H-pyrrolo[3,2-d]pyrimidin-2-yl)amino) cyclohexanol]

IC50 (human RIPK2 kinase): > 500 nM
SMILES: Cc1ccccc1-c1cc2nc(N[C@H]3CC[C@@H](O)CC3)ncc2[nH]1 [Example A22, (1s,4s)-4-((6-(o-tolyl)-5H-pyrrolo[3,2-d]pyrimidin-2-yl)amino) cyclohexanol]

IC50 (human RIPK2 kinase): > 500 nM
SMILES: Cc1ccccc1-c1cc2nc(NC3CCOCC3)ncc2[nH]1 [Example A23, N-(tetrahydro-2H-pyran-4-yl)-6-(o-tolyl)-5H-pyrrolo[3,2-d]pyrimidin-2-amine]

IC50 (human RIPK2 kinase): 100 to 500 nM
SMILES: Cc1ccccc1-c1cc2nc(NCC3CCOCC3)ncc2[nH]1 [Example A24, N-((tetrahydro-2H-pyran-4-yl)methyl)-6-(o-tolyl)-5H-pyrrolo[3,2-d]pyrimidin-2-amine]

IC50 (human RIPK2 kinase): 100 to 500 nM
SMILES: COc1ccccc1-c1cc2nc(Nc3cccc(N4CCOCC4)c3)ncc2[nH]1 [Example A25, 6-(2-methoxy-phenyl)-N-(3-morpholino-phenyl)-5H-pyrrolo[3,2-d] pyrimidin-2-amine]

IC50 (human RIPK2 kinase): > 500 nM
SMILES: Cc1ccccc1-c1cc2nc(NCC3(N4CCOCC4)CCCC3)ncc2[nH]1 [Example A26, N-((1-morpholino-cyclopentyl)methyl)-6-(o-tolyl)-5H-pyrrolo[3,2-d]pyrimidin-2-amine]
